In patent US20230398130A1, “METHODS AND COMPOSITIONS FOR DIFFERENTIATING STEM CELLS” (Massachusetts Institute of Technology, priority 2020, published 2023):

How the values were obtained:
[1] = test system: ISC-enriched organoids; test: Primary screen, 384-well 2.5-D organoid differentiation (ENR+CD, 6 days): basal lysozyme secretion (LYZ.NS); format: cell-based, murine; details: for Dose.FC.LYZ.NS: FC vs plate median; for Z.LYZ.NS: standard z score of FC; for Dose.FC.LYZ.NS (log 2 fold change, basal lysozyme secretion): vs plate median
Text: (§1) High-throughput screening.

[2] = test system: ISC-enriched organoids; test: Primary screen, 384-well 2.5-D organoid differentiation (ENR+CD, 6 days): carbachol-induced lysozyme secretion (LYZ.S); format: cell-based, murine; details: for Dose.FC.LYZ.S: FC vs plate median; for Dose.FC.LYZ.S (log 2 fold change, carbachol-induced lysozyme secretion): vs plate median
Text: as §1

[3] = test system: ISC-enriched organoids; test: Primary screen, 384-well 2.5-D organoid differentiation (ENR+CD, 6 days, Target Selective Inhibitor Library, vs whole-plate median): ATP (CellTiter-Glo 3D, CTG); details: for Dose.FC.CTG: FC vs plate median; for Z.CTG: standard z score of FC; for Dose.FC.CTG (log 2 fold change, ATP): vs plate median
[4] = primary screen, dose 0.08 uM, ENR+CD 6 days
[5] = primary screen, dose 0.40 uM, ENR+CD 6 days
[6] = primary screen, dose 2.00 uM, ENR+CD 6 days
[7] = primary screen, dose 10.00 uM, ENR+CD 6 days
[8] = dose 0.08 uM (1st of 4 lines per treatment; dose not printed in this part)
[9] = dose 0.40 uM (2nd of 4 lines per treatment; dose not printed in this part)
[10] = dose 2.00 uM (3rd of 4 lines per treatment; dose not printed in this part)
[11] = dose 10.00 uM (4th of 4 lines per treatment; dose not printed in this part)

## C=CC(=O)Nc1cccc(Nc2nc(Nc3ccc(Oc4ccnc(C(=O)NC)c4)cc3)ncc2F)c1 [CNX-774]
[1]; Dose 0.08 uM, ENR+CD, 6 days
  Dose.FC.LYZ.NS: 0.075 log 2 fold change
[1]; Dose 0.08 uM
  Z.LYZ.NS: 0.655
[1]; Dose 0.40 uM, ENR+CD, 6 days
  Dose.FC.LYZ.NS: −0.008 log 2 fold change
[1]; Dose 0.40 uM
  Z.LYZ.NS: −0.067
[1]; Dose 2.00 uM, ENR+CD, 6 days
  Dose.FC.LYZ.NS: 0.158 log 2 fold change
[1]; Dose 2.00 uM
  Z.LYZ.NS: 1.378
[1]; Dose 10.00 uM, ENR+CD, 6 days
  Dose.FC.LYZ.NS: −0.043 log 2 fold change
[1]; Dose 10.00 uM
  Z.LYZ.NS: −0.376
[2]; Dose 0.08 uM, ENR+CD, 6 days
  Dose.FC.LYZ.S: 0.014 log 2 fold change
[2]; Dose 0.40 uM, ENR+CD, 6 days
  Dose.FC.LYZ.S: −0.027 log 2 fold change
[2]; Dose 2.00 uM, ENR+CD, 6 days
  Dose.FC.LYZ.S: 0.082 log 2 fold change
[2]; Dose 10.00 uM, ENR+CD, 6 days
  Dose.FC.LYZ.S: −0.089 log 2 fold change
[3]; Dose 0.08 uM, ENR+CD, 6 days
  Dose.FC.CTG: 0.259 log 2 fold change
[3]; Dose 0.08 uM
  Z.CTG: 0.619
[3]; Dose 0.40 uM, ENR+CD, 6 days
  Dose.FC.CTG: 0.177 log 2 fold change
[3]; Dose 0.40 uM
  Z.CTG: 0.422
[3]; Dose 2.00 uM, ENR+CD, 6 days
  Dose.FC.CTG: −0.109 log 2 fold change
[3]; Dose 2.00 uM
  Z.CTG: −0.260
[3]; Dose 10.00 uM, ENR+CD, 6 days
  Dose.FC.CTG: −0.081 log 2 fold change
[3]; Dose 10.00 uM
  Z.CTG: −0.194

## CC(C)C[C@@H](C(=O)N[C@H](C(=O)OC1CCCC1)c1ccccc1)[C@H](O)C(=O)NO [Tosedostat (CHR2797)]
[1]; dose 0.08 uM
  Z.LYZ.NS (standard z score): −0.022
  Dose.FC.LYZ.NS (log 2 fold change, basal lysozyme secretion): −0.002
[1]; dose 0.40 uM
  Z.LYZ.NS (standard z score): −0.925
  Dose.FC.LYZ.NS (log 2 fold change, basal lysozyme secretion): −0.106
[1]; dose 2.00 uM
  Z.LYZ.NS (standard z score): −0.432
  Dose.FC.LYZ.NS (log 2 fold change, basal lysozyme secretion): −0.050
[1]; dose 10.00 uM
  Z.LYZ.NS (standard z score): −1.499
  Dose.FC.LYZ.NS (log 2 fold change, basal lysozyme secretion): −0.172
[2]; dose 0.08 uM
  Dose.FC.LYZ.S (log 2 fold change, carbachol-induced lysozyme secretion): −0.027
[2]; dose 0.40 uM
  Dose.FC.LYZ.S (log 2 fold change, carbachol-induced lysozyme secretion): −0.134
[2]; dose 2.00 uM
  Dose.FC.LYZ.S (log 2 fold change, carbachol-induced lysozyme secretion): −0.128
[2]; dose 10.00 uM
  Dose.FC.LYZ.S (log 2 fold change, carbachol-induced lysozyme secretion): −0.276
[3]; dose 0.08 uM
  Z.CTG (standard z score): −0.232
  Dose.FC.CTG (log 2 fold change, ATP): −0.097
[3]; dose 0.40 uM
  Z.CTG (standard z score): 0.123
  Dose.FC.CTG (log 2 fold change, ATP): 0.051
[3]; dose 2.00 uM
  Z.CTG (standard z score): −0.480
  Dose.FC.CTG (log 2 fold change, ATP): −0.201
[3]; dose 10.00 uM
  Z.CTG (standard z score): −1.117
  Dose.FC.CTG (log 2 fold change, ATP): −0.468

## COc1cc(N2CCN(C)CC2)ccc1Nc1nccc(-c2cn(C)c3cnccc23)n1 [AZ191]
[1]; [4]
  Dose.FC.LYZ.NS: 0.128 log 2 fold change
[1]; primary screen, dose 0.08 uM
  Z.LYZ.NS: 1.111
[1]; [5]
  Dose.FC.LYZ.NS: 0.082 log 2 fold change
[1]; primary screen, dose 0.40 uM
  Z.LYZ.NS: 0.717
[1]; [6]
  Dose.FC.LYZ.NS: 0.058 log 2 fold change
[1]; primary screen, dose 2.00 uM
  Z.LYZ.NS: 0.507
[1]; [7]
  Dose.FC.LYZ.NS: −0.148 log 2 fold change
[1]; primary screen, dose 10.00 uM
  Z.LYZ.NS: −1.289
[2]; [4]
  Dose.FC.LYZ.S: 0.143 log 2 fold change
[2]; [5]
  Dose.FC.LYZ.S: 0.199 log 2 fold change
[2]; [6]
  Dose.FC.LYZ.S: 0.097 log 2 fold change
[2]; [7]
  Dose.FC.LYZ.S: −0.200 log 2 fold change
[3]; [4]
  Dose.FC.CTG: 0.292 log 2 fold change
[3]; primary screen, dose 0.08 uM
  Z.CTG: 0.697
[3]; [5]
  Dose.FC.CTG: 0.337 log 2 fold change
[3]; primary screen, dose 0.40 uM
  Z.CTG: 0.804
[3]; [6]
  Dose.FC.CTG: 0.150 log 2 fold change
[3]; primary screen, dose 2.00 uM
  Z.CTG: 0.358
[3]; [7]
  Dose.FC.CTG: −0.533 log 2 fold change
[3]; primary screen, dose 10.00 uM
  Z.CTG: −1.272

## C=CCNC1=C2C[C@@H](C)C[C@H](OC)[C@H](O)[C@@H](C)/C=C(\C)[C@H](OC(N)=O)[C@@H](OC)/C=C\C=C(/C)C(=O)NC(=CC1=O)C2=O [17-AAG (Tanespimycin)]
[1]; [8]
  SSMD.LYZ.NS_Rep (strictly standardized mean difference): −1.180
[1]; [9]
  SSMD.LYZ.NS_Rep (strictly standardized mean difference): −1.186
[1]; [10]
  SSMD.LYZ.NS_Rep (strictly standardized mean difference): −1.053
[1]; [11]
  SSMD.LYZ.NS_Rep (strictly standardized mean difference): −1.183
[1]; [4]
  Dose.FC.LYZ.NS: −0.193 log 2 fold change
[1]; primary screen, dose 0.08 uM
  Z.LYZ.NS: −1.682
[1]; [5]
  Dose.FC.LYZ.NS: −0.205 log 2 fold change
[1]; primary screen, dose 0.40 uM
  Z.LYZ.NS: −1.786
[1]; [6]
  Dose.FC.LYZ.NS: −0.142 log 2 fold change
[1]; primary screen, dose 2.00 uM
  Z.LYZ.NS: −1.239
[1]; [7]
  Dose.FC.LYZ.NS: −0.187 log 2 fold change
[1]; primary screen, dose 10.00 uM
  Z.LYZ.NS: −1.631
[2]; [8]
  SSMD.LYZ.S_Rep (strictly standardized mean difference): −1.387
  Z.LYZ.S (standard z score): −1.826
[2]; [9]
  SSMD.LYZ.S_Rep (strictly standardized mean difference): −1.428
  Z.LYZ.S (standard z score): −2.199
[2]; [10]
  SSMD.LYZ.S_Rep (strictly standardized mean difference): −1.462
  Z.LYZ.S (standard z score): −2.219
[2]; [11]
  SSMD.LYZ.S_Rep (strictly standardized mean difference): −1.655
  Z.LYZ.S (standard z score): −1.975
[2]; [4]
  Dose.FC.LYZ.S: −0.282 log 2 fold change
[2]; [5]
  Dose.FC.LYZ.S: −0.340 log 2 fold change
[2]; [6]
  Dose.FC.LYZ.S: −0.343 log 2 fold change
[2]; [7]
  Dose.FC.LYZ.S: −0.306 log 2 fold change
[3]; [8]
  SSMD.CTG_Rep (strictly standardized mean difference): −0.926
[3]; [9]
  SSMD.CTG_Rep (strictly standardized mean difference): −1.023
[3]; [10]
  SSMD.CTG_Rep (strictly standardized mean difference): −1.783
[3]; [11]
  SSMD.CTG_Rep (strictly standardized mean difference): −1.348
[3]; [4]
  Dose.FC.CTG: −1.012 log 2 fold change
[3]; primary screen, dose 0.08 uM
  Z.CTG: −2.418
[3]; [5]
  Dose.FC.CTG: −1.262 log 2 fold change
[3]; primary screen, dose 0.40 uM
  Z.CTG: −3.015
[3]; [6]
  Dose.FC.CTG: −1.459 log 2 fold change
[3]; primary screen, dose 2.00 uM
  Z.CTG: −3.486
[3]; [7]
  Dose.FC.CTG: −1.446 log 2 fold change
[3]; primary screen, dose 10.00 uM
  Z.CTG: −3.454
